Reference: patent publication US11759480B2, “Compositions and methods for CAR T cell therapy” (ENDOCYTE, INC., priority 2017, dated 2023)

What was measured:
MDA-MB-231 = experiment: FITC-Folate dose escalation study in vivo (Example 20)
Protocol: To test whether gradual escalation of FITC-Folate dose can minimize CART cell mediated toxicity without compromising anti-tumor efficacy of CAR T cells, an experiment was designed. A dose of FITC-Folate (0.05 nmole/kg) was introduced first into NSG mice bearing MDA-MB-231 (tumor volume about 50-100 mm^3) along with anti-FITC CAR T cell injections (using about 15×10^6 cells). An additional two doses of about 0.05 nmole/kg FITC-Folate was administered to the mice. […] After a gradual increase of FITC-Folate dose, mice were treated with a 500 nmole/kg dose of FITC-Folate. […] General toxicity of each treatment group was monitored by measuring body weight loss. Tumor volume was measured to monitor anti-FITC CAR T cells' anti-tumor efficacy.

SKOV-3 = experiment: FITC-CAR-T/EC17 therapy, SKOV-3 model (Example 28); assay type: in vivo, NSG mice; details: 500 nmol/kg weekly, 5 million FITC-CAR-T
Protocol: To test whether FITC-CAR-T/EC17 therapy has anti-tumor activity in various FR+ tumor models, NSG mice were subcutaneously implanted with MDA-MB-231 (triple negative breast cancer cell line), OV90 (human ovarian cancer cell line), KB (human cervical adenocarcinoma cell line), SKOV-3 (human ovarian carcinoma cell line), or HEK293-FRa (HEK293 stably-transfected with human FRa). When tumor size reached […], one dose of EC17 at 500 nmol/kg of body weight was injected by tail vein followed with administering of 5 million FITC-CAR-T cells 4 hours later. 500 nmol/kg EC17 was dosed once every week after the initial EC17/CAR-T administration (about day 7), tumor size and body weights of mice were monitored three times per week. The EC17 dosing days were labeled as green dashed vertical lines in the graph. […] EC17 dose-dependent temporary body weight loss was also observed in all tumor bearing mice, indicating the activation of CAR-Ts is EC17-dependent in these mice.

THP-1-FRβ tumors = experiment: EC17/CAR-T therapy in folate receptor-β positive acute myeloid leukemia model (Example 44); assay type: in vivo
Text: THP-1-FRβ tumors were generated by intravenous implantation of cultured cells at 5×10^6 per animal in 9 NSG mice.
Starting 11 days post tumor implantation, ˜8.3 million of GFP+4M5.3 CAR-T cells were intravenously infused into each mouse. Mice were divided into 3 groups (n=3): (1) CAR-T cell alone, (2) CAR-T cells with weekly EC17 doses at 500 nmol/kg, and (3) CAR-T cells with weekly EC17 doses at 500 nmol/kg plus sodium fluorescein rescue when needed. The first EC17 dose was given two days after CAR-T cell administration. All EC17 doses were given towards the end of day (˜3-4 PM) to allow cytokine release syndrome (CRS) to develop overnight. […] No additional sodium fluorescein rescue was given for additional EC17 dosing in Group 3. Mice were weighed and monitored for sign of health and disease development. […] Upon euthanasia, all mice were subject to gross examination for the presence of tumor masses. All visible tumor masses were excised, counted and weighed. Blood, tumor metastases (mets) and normal adjacent tissues were collected for same-day flow cytometry analysis.
Plasma was removed from predetermined volumes of whole EDTA treated blood with a 10-minute 4° C. spin at 3000×g and the resulting cell pellets were incubated with a 10-fold volume of room temperature 1×RBC lysis solution (prepared from 10× stock; Biolegend, catalog #420301) for 5 minutes, centrifuged at 400×g for 5 min. The cell pellets were washed in a 10-fold volume of ice-cold phosphate-buffered saline (PBS, pH=7.4 and filtered with a 40 μm nylon filter then pelleted again. The leukocyte cell pellets were then resuspended in a flow cytometry staining solution (1% bovine serum albumin, […] human IgG (Equitech Bio, cat #SLH56-0001), 0.9% sodium azide in PBS, pH=7.4) supplemented with both anti-mouse FcγIII/II receptor (CD16/CD32) block (clone 2.4G2; BD Bioscience, catalog #553142 at 1:100 (v/v) dilution) and anti-human Fc Block (BD Biosciences, catalog #564220 at 1:50 (v/v) dilution). Surface marker staining was performed with the addition of the following fluorochrome conjugated monoclonal antibodies added to each sample for 20 minutes on ice in the dark: anti-human CD45-APCeF780 (clone HI30, eBioscience #47-0459-42 at 1:20 (v/v) dilution), anti-human CD3-BV650 (clone SK7, BD Bioscience, catalog #563999 at 1:20 (v/v) dilution), anti-human CD137-BV650 (clone 4B4-1, BD Bioscience #564092 at 1:20 (v/v) dilution), anti-human CD8α-PECy7 (clone RPA-T8, BD Bioscience, catalog #557746 at 1:20 (v/v) dilution), anti-human CD4-Percpe710 (clone SK3, eBioscience catalog #46-0047-42 at 1:20 (v/v) dilution), anti-human CD25-PE (clone M-A251, BD Bioscience, catalog #555432 at 1:10 (v/v) dilution), anti-human CD33-PE (clone WM53, BD Bioscience, catalog #555450 at 1:5 (v/v) dilution), anti-human CD123-AF647 (clone 9F5, BD Bioscience, catalog #563599 at 1:20 (v/v) dilution). Biotinylated anti-human folate receptor-β (clone m909) was kindly provided by the Low lab at Purdue University (Arthritis Res Ther. 2011; 13(2):R59) and detected using streptavidin-eFluor660 (eBioscience, catalog #50-4317 at 1:1000 (v/v) dilution). Folic acid binding was interpreted as a measure of functional folate receptor and was determined by incubation with an Alexa Fluor conjugated folic acid which was synthesized in house. After leukocyte staining, cells were washed with PBS and resuspended in cold PBS containing 3 μM propidium idodide. Flow cytometry data was collected on the Gallios flow cytometer (Beckman Coulter, Brea, Calif.), where a minimum of 15,000 CountBright™ bead events were collected in an attempt to collect enough leukocyte events for an accurate count of infused CAR T cells in each mouse blood sample. Determination of the concentration of CAR T cells in each blood sample was calculated according to Invitrogen's instructions. Briefly, CAR T cells were identified as human CD45+ GFP+ events and easily distinguished and counted using the Kaluza™ flow cytometry software version 1.5. […]

Structure (SMILES) | effect on CAR T cells' anti-tumor efficacy (MDA-MB-231; gradual escalation) | toxicity (MDA-MB-231; gradual escalation 0.05 to 500 nmole/kg, 15×10^6 CAR T cells) | tumor response (SKOV-3) | GFP+ leukemic cells in blood (THP-1-FRβ tumors; 500 nmol/kg SIW for 4 weeks, day 34 post CAR-T infusion) | CRS grade (THP-1-FRβ tumors; morning after first EC17 dose 500 nmol/kg, ~8.3 million CAR-T) [grade] | persistence of anti-leukemia activity post CAR T cell infusion (THP-1-FRβ tumors; mouse, in vivo) [days] | EC17-treated mice with minimum tumor load at collection (THP-1-FRβ tumors; weekly 500 nmol/kg, +/- one-time sodium fluorescein rescue) | CAR T cell phenotype (THP-1-FRβ tumors; weekly injections of EC17) | recovery from CRS (THP-1-FRβ tumors; 6 μmol/kg, Group 3) | CAR T cell functionality after rescue (THP-1-FRβ tumors; mouse #10, rescue after first EC17 dose)
Nc1nc2ncc(CNc3ccc(C(=O)NC(CCC(=O)NCCNC(=S)Nc4ccc(-c5c6ccc(=O)cc-6oc6cc(O)ccc56)c(C(=O)O)c4)C(=O)O)cc3)nc2c(=O)[nH]1 (stereo not shown) [EC17, FITC-Folate] | did not negatively affect | no serious toxicity | stable disease | nearly undetectable in the blood | ~3 | 47 | five out of the 6 | central memory/effector memory phenotype | – | –
O=C([O-])c1ccccc1-c1c2ccc(=O)cc-2oc2cc([O-])ccc12.[Na+].[Na+] [sodium fluorescein] | – | – | – | – | – | – | – | – | completely recovered | CAR T cell functionality was preserved
